Data as given in patent publication US20230277632A1, “MODIFIED PlySs2 LYSINS AND ANTIBIOTIC COMBINATIONS FOR USE AGAINST GRAM-POSITIVE BACTERIA” (ContraFect Corporation, priority 2020, published 2023).
Where two headings read alike, the source gives them in different places.

System: MSSA strains
Experiment: Checkerboard assay: pp296 or CF-301 with oxacillin
Assay type: cell-based, Staphylococcus aureus
Conditions: for MIC: Staphylococcus aureus, read-out: Single agent MICs; for FIC / MIC in combination: pp296 + oxacillin; for MIC in combination: unit assumed; for ΣFICmin: with oxacillin
Source text: In some embodiments, the present modified lysin polypeptides reduce the minimum inhibitory concentration (MIC) of an antibiotic. Any known method to assess MIC may be used. In some embodiments, a checkerboard assay is used to determine the effect of a lysin on antibiotic concentration. The checkerboard assay is based on a modification of the CLSI method for MIC determination by broth microdilution (See Clinical and Laboratory Standards Institute (CLSI), CLSI. 2015. Methods for Dilution Antimicrobial Susceptibility Tests for Bacteria That Grow Aerobically; Approved Standard-10th Edition. Clinical and Laboratory Standards Institute, Wayne, Pa., which is herein incorporated by reference in its entirety and Ceri et al. 1999. J. Clin. Microbiol. 37: 1771-1776, which is also herein incorporated by reference in its entirety).
Checkerboards are constructed by first preparing columns of e.g., a 96-well polypropylene microtiter plate, wherein each well has the same amount of antibiotic diluted 2-fold along the horizontal axis. […] The lysin and antibiotic dilutions are then combined, so that each column has a constant amount of antibiotic and doubling dilutions of lysin, while each row has a constant amount of lysin and doubling dilutions of antibiotic. Each well thus has a unique combination of lysin and antibiotic. Bacteria are added to the drug combinations at a given concentration. […] Summation fractional inhibitory concentrations (ΣFICs) are calculated for each drug and the minimum ΣFIC value (ΣFICmin) is used to determine the effect of the lysin/antibiotic combination.
The ability of CF-301 or a modified lysin polypeptide pp296 to synergize with oxacillin was assessed using a checkerboard analysis. For the checkerboard assay, a total of 50 μl of Mueller-Hinton broth is distributed into each well of microdilution plates. Then, a first antibiotic of a combination is serially diluted along the ordinate, while a second drug is diluted along the abscissa. An inoculum equal to a 0.5 McFarland turbidity standard is prepared from each bacterial isolate in Mueller-Hinton broth. Each microtiter well is then inoculated with 100 μl of a bacterial inoculum of 5×10^5 CFU/ml, and the plates are incubated at 37° C. for 18 h under aerobic conditions. The resulting checkerboard contains each combination of two antibiotics, with wells that contain the highest concentration of each antibiotic at opposite corners. […] To quantify the interactions between the antibiotics being tested, the FIC index (the combination of antibiotics that produced the greatest change from the individual antibiotic's MIC) value is calculated for each strain and antibiotic combination as follows:
(A/MICA)+(B/MICB)=FICA+FICB=FIC index,
where A and B are the MIC of each agent in combination in a single well, and MICA and MICB are the MIC of each drug when used individually. The combination is considered strongly synergistic when the FIC index is ≤0.5 and synergistic when the FIC index is >0.5-<1.

Cc1onc(-c2ccccc2)c1C(=O)N[C@@H]1C(=O)N2[C@@H]1SC(C)(C)[C@@H]2C(=O)O [Oxacillin, oxacillin]
0.5 µg/mL: MIC (ATCC 29213 / MSSA, MSSA ATCC 29213) | MIC (MSSA, MSSA JMI-38739) | MIC (MSSA, MSSA JMI-38986) | MIC (MSSA, MSSA JMI-40671) | MIC (MSSA, MSSA JMI-46142)
1 µg/mL: MIC (MSSA, MSSA JMI-6625) | MIC (MSSA, MSSA JMI-6885) | MIC (MSSA, MSSA JMI-6886) | MIC (MSSA, MSSA JMI-7054) | MIC (MSSA, MSSA JMI-7160)
0.0625 µg/mL: MIC in combination (MSSA JMI-40671)
0.25: FIC (MSSA ATCC 29213) | FIC (MSSA JMI-6625) | FIC (MSSA JMI-6886) | FIC (MSSA JMI-7054) | FIC (MSSA JMI-7160) | FIC (MSSA JMI-38739) | FIC (MSSA JMI-38986) | FIC (MSSA JMI-46142)
0.125: FIC (MSSA JMI-6885) | FIC (MSSA JMI-40671)
0.25 µg/mL: MIC in combination (MSSA JMI-6625) | MIC in combination (MSSA JMI-6886) | MIC in combination (MSSA JMI-7054) | MIC in combination (MSSA JMI-7160)
0.125 µg/mL: MIC in combination (MSSA ATCC 29213) | MIC in combination (MSSA JMI-6885) | MIC in combination (MSSA JMI-38739) | MIC in combination (MSSA JMI-38986) | MIC in combination (MSSA JMI-46142)

B1: CF-301: Lysin CF-301, comparator lysin in the oxacillin checkerboard analysis (protein)
chain: MTTVNEALNNVRAQVGSGVSVGNGECYALASWYERMISPDATVGLGAGVGWVSGAIGDTISAKNIGSSYNWQANGWTVSTSGPFKAGQIVTLGATPGNPYGHVVIVEAVDGDRLTILEQNYGGKRYPVRNYYSAASYRQQVVHYITPPGTVAQSAPNLAGSRSYRETGTMTVTVDALNVRRAPNTSGEIVAVYKRGESFDYDTVIIDVNGYVWVSYIGGSGKRNYVATGATKDGKRFGNAWGTFK
0.5: ΣFICmin (MSSA ATCC 29213) | ΣFICmin (MSSA JMI-6885) | ΣFICmin (MSSA JMI-6886) | ΣFICmin (MSSA JMI-7054) | ΣFICmin (MSSA JMI-7160) | ΣFICmin (MSSA JMI-38739)
0.3125: ΣFICmin (MSSA JMI-40671)
0.375: ΣFICmin (MSSA JMI-6625) | ΣFICmin (MSSA JMI-38986) | ΣFICmin (MSSA JMI-46142)
